Data published in patent publication US20100093541A1, “HERBICIDE COMBINATION COMPRISING DIMETHOXYTRIAZINYL SUBSTITUTED DIFLUOROMETHANESULFONYLANILIDES” (BAYER CROPSCIENCE AG, priority 2008, published 2010).

Experiments:
Type in all cases: in vivo
[1] = tested on: Triticum aestivum (TRZAS); assay: Post-emergence action, greenhouse pot test, visual scoring
Description: (§1) Seeds or rhizome pieces of mono- and dicotyledonous harmful and useful plants were placed in peat pots (diameter 4 cm) filled with sandy loam and then covered with soil. The pots were kept in a greenhouse under optimum conditions. In addition, harmful plants encountered in paddy rice cultivation were cultivated in pots with a water level 2 cm above the soil surface.
(§2) About three weeks after the start of the cultivation, the test plants were treated at the 2- to 3-leaf stage. The herbicides, formulated as powder or liquid concentrates, were, either alone or in the combinations according to the invention, sprayed in various dosages on to the green parts of the plants using an application rate of 600 l of water/ha (converted). For further cultivation of the plants, the pots were then again kept under optimum conditions in a greenhouse.
(§3) The visual scoring of the herbicidal effects was carried out in intervals up to 21 days after the treatment. Scoring was carried out in percent in comparison to the untreated control plants. 0%=no herbicidal activity, 100%=complete herbicidal activity=complete kill.
(§4) The percentages from the treatments with the herbicides alone (=individual application) and with the combinations according to the invention (=mixtures) were employed to calculate interactions using the method of Colby. When the observed efficacies of the mixtures exceed the formal sum of the values of the tests with individual applications, they also exceed the expected value according to Colby, which is calculated using the formula below (cf. S. R. Colby; in Weeds 15 (1967) pp. 20 to 22):
(§5) • A, B=activity of components A and B in percent at a dosage of a and b g of ai/ha (=gramm of active substance per hectare), respectively. • E=expected value in % at a dosage of a+b g of ai/ha.
(§6) The combinations according to the invention of herbicides from group (A) with herbicides from group (B) were tested on a broad spectrum of important harmful plants (weed grasses, broad-leaved weeds/Cyperaceae) and useful plants: Triticum aestivum (TRZAS), Stellaria media (STEME), Lolium multiflorum (LOLMU), Veronica persica (VERPE), Alopecurus myosuroides (ALOMY), Matricaria inodora (MATIN), Brassica napus (BRSNW), Viola tricolor (VIOTR), Avena fatua (AVEFA), Amaranthus retroflexus (AMARE), Zea mays (ZEAMX), Pharbitis purpurea (PHBPU), Setaria viridis (SETVI), Fallopia (ex Polygonum) convolvulus (POLCO), Echinochloa crus-galli (ECHCG), Abuthilon theophrasti (ABUTH), Cyperus esculentus (CYPES), Oryza sativa (ORYSA).
(§7) Of particular interest are the results shown in the tables (Tab.) below, where the following key is used: • (1) EPPO code (former Bayer code) for the treated plant (see above) • (2) Time of scoring: DAT (days after treatment) • (3) Component A tested (identifying number) • (4) Component B tested (identifying number) • (5) Dosage component A [g of ai/ha] • (6) Dosage component B [g of ai/ha] • (7) % activity found • (8) E value (calculated according to Colby; see above) • (9) Comments: “SYNERGY”=synergistic interaction (E value<% activity found); “SAFENING”=safener action on useful plant (E value>% activity found)

[2] = tested on: Cyperus esculentus (CYPES); assay: Post-emergence action against weeds, greenhouse pot test, visual scoring
Description: as §1, §2, §3, §4, §5

[3] = tested on: Avena fatua (AVEFA); assay: as above
Description: as §1, §2, §3, §4, §5, §6, §7

[4] = tested on: Fallopia (ex Polygonum) convolvulus (POLCO); assay: as above; conditions: 10 DAT, component B 150 g of ai/ha
Description: as §1, §2, §3, §4, §5, §6, §7

[5] = tested on: Setaria viridis (SETVI); assay: as above
Description: as §1, §2, §3, §4, §5, §6, §7

[6] = tested on: Viola tricolor (VIOTR); assay: as above
Description: as §1, §2, §3, §4, §5, §6, §7

[7] = tested on: Matricaria inodora (MATIN); assay: as above; conditions: 21 DAT
Description: as §1, §2, §3, §4, §5, §6, §7

[8] = tested on: Oryza sativa (ORYSA); assay: Post-emergence action, greenhouse pot test, visual scoring; conditions: 21 DAT, component B 150 g of ai/ha
Description: as §1, §2, §3, §4, §5, §6, §7

[9] = tested on: Zea mays (ZEAMX); assay: as above
Description: as §1, §2, §3, §4, §5, §6, §7

[10] = tested on: Alopecurus myosuroides (ALOMY); assay: Post-emergence action against weeds, greenhouse pot test, visual scoring; conditions: 21 DAT, component B 40 g of ai/ha
Description: as §1, §2, §3, §4, §5, §6, §7

[11] = 10 DAT, component B 50 g of ai/ha
[12] = 21 DAT, component B 50 g of ai/ha
[13] = 21 DAT, component B 150 g of ai/ha
[14] = 21 DAT, component B 120 g of ai/ha
[15] = 21 DAT, component B 40 g of ai/ha

## COc1nc(OC)nc(C(=O)c2cccc(F)c2N(C)S(=O)(=O)C(F)F)n1 [A-1]
[1]; 21 DAT, component A 12 g of ai/ha, Table 16
  % activity found: 0%

## N#Cc1cc(Br)c(O)c(Br)c1 [B1-1, 3,5-dibromo-4-hydroxybenzonitrile]
[2]; [11]
  % activity found: 0%
[2]; [12]
  % activity found: 0%
[2]; [13]
  % activity found: 0%
[3]; [11]
  % activity found: 0%
[4]
  % activity found: 10%
[5]; [11]
  % activity found: 20%
[5]; [12]
  % activity found: 20%
[5]; [13]
  % activity found: 20%
[6]; [11]
  % activity found: 20%
[6]; [13]
  % activity found: 20%
[7]; component B 150 g of ai/ha
  % activity found: 70%
[7]; component B 150 g of ai/ha, Table 9
  % activity found: 60%
[1]; [13]
  % activity found: 0%
[8]
  % activity found: 0%
[9]; [11]
  % activity found: 0%
[9]; 10 DAT, component B 150 g of ai/ha
  % activity found: 20%
[9]; [12]
  % activity found: 0%

## C#CCN(C)c1c(C#N)cnn1-c1nn2c(c1Cl)CCCC2 [B1-4, 1-(3-chloro-4,5,6,7-tetrahydropyrazolo[1,5-a]pyridin-2-yl)-5-(methyl-2-propynylamino)-1H-pyrazole-4-carbonitrile]
[2]; [14]
  % activity found: 40%
[3]; [15]
  % activity found: 40%
[7]; component B 120 g of ai/ha
  % activity found: 80%
[10]
  % activity found: 30%
[1]; 10 DAT, component B 40 g of ai/ha
  % activity found: 40%
[1]; 10 DAT, component B 120 g of ai/ha
  % activity found: 60%
[1]; [15]
  % activity found: 30%
[1]; [14]
  % activity found: 60%
